Results as given in patent publication US20250136576A1, “Heterocyclic Compounds and Uses Thereof” (ACEA Therapeutics, Inc., priority 2021, published 2025).

What was measured:
Format in all cases: cell-based
MV-4-11 (AML) cells = experiment: Cell proliferation and growth inhibition assay (CCK-8) in MV-4-11; details: Homo sapiens, MV4-11; MV-4-11 cells, treated with test compounds for 72 hrs, CCK-8 viability
Method: (§1) MV-4-11 and H1975 cells were obtained from the American Type Culture Collection and KM12-luc cells were obtained from JCRB Cell Bank. All cell lines were maintained at 37° C. with 5% C02, in media supplemented with 10% fetal bovine serum and penicillin (100 units/mL) and streptomycin (100 μg/mL). MV-4-11 cells were maintained in Iscove's Modified Dubecco's Medium, H1975 cells were cultured with RPMI 1640 media, and KM12-luc cells were maintained in Dulbecco's Modification of Eagle's Medium. CCK-8 reagent was obtained from Yeasen.
(§2) Cell proliferation was assessed by CCK-8 assay (Yeasen) per the manufacturer's instructions. The MV-4-11 (AML), H1975, and KM12-luc cells were seeded at 30,000, 3,000 and 2,500 cells per well onto 96-well plates, and after a 24 h incubation, the cells were treated with test compounds for 72 hrs. Cell viability was assayed by incubating the cells with CCK-8 reagent for 1-4 hrs. Absorbance was measured at OD450 using the Beckman DTX880. The data was calculated using GraphPad Prism version 6.01. The IC50 values were fitted using a non-linear regression model with a sigmoidal dose response.

KM12-luc cells = experiment: Cell proliferation and growth inhibition assay (CCK-8) in KM12-luc; details: KM12-Luc, 72 h, KM12-luc cells, treated with test compounds for 72 hrs, CCK-8 viability; read-out: NTRK IC50 in KM12-luc
Procedure, shortened: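 Cells were grown at 37 °C, 5% CO2 with 10% FBS: MV-4-11 in IMDM, H1975 in RPMI 1640, KM12-luc in DMEM. Viability was read by CCK-8 (1-4 hrs reagent incubation, absorbance at OD450). IC50 came from a non-linear sigmoidal dose-response fit.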

H1975 cells = experiment: Cell proliferation and growth inhibition assay (CCK-8) in H1975; details: Homo sapiens, NCI-H1975, 72 h, treated with test compounds for 72 hrs, CCK-8 viability, read-out: EGFR IC50 in H1975
Method: as §1, §2

IC50 (MV-4-11 (AML) cells) [nM] | IC50 (H1975 cells) [nM] | SMILES | IC50 (KM12-luc cells) [nM]
– | 1010 | CC(=O)Nc1cc(Nc2ncc(Cl)c(-c3cn(C)c4ccccc34)n2)ccc1NCCN(C)C [Compound 400a, N-(5-((5-chloro-4-(1-methyl-1H-indol-3-yl)pyrimidin-2-yl)amino)-2-((2-(dimethylamino)ethyl)amino)phenyl)acetamide] | 42
– | 1250 | COc1cnc(Nc2ccc(N3CC[C@H](N(C)C)C3)c(NC(C)=O)c2)nc1-c1c[nH]c2c(F)cccc12 [Compound S-280, (S)—N-(2-(3-(dimethylamino)pyrrolidin-1-yl)-5-((4-(7-fluoro-1H-indol-3-yl)-5-methoxypyrimidin-2-yl)amino)phenyl)acetamide] | 14.6
– | 1260 | COc1cnc(Nc2ccc(N3CC[C@H](N(C)C)C3)c(NC(C)=O)c2)nc1-c1c[nH]c2c(OC)cccc12 [Compound S-288, (S)—N-(2-(3-(dimethylamino)pyrrolidin-1-yl)-5-((5-methoxy-4-(7-methoxy-1H-indol-3-yl)pyrimidin-2-yl)amino)phenyl)acetamide] | 16.9
– | 461 | CC(=O)Nc1cc(Nc2ncc(C(F)(F)F)c(-c3cn(C)c4c(C)cccc34)n2)ccc1N1CC[C@H](N(C)C)C1 [Compound S-373, (S)—N-(5-((4-(1,7-dimethyl-1H-indol-3-yl)-5-(trifluoromethyl)pyrimidin-2-yl)amino)-2-(3-(dimethylamino)pyrrolidin-1-yl)phenyl)acetamide] | 21.1
– | 898 | COc1cccc2c(-c3nc(Nc4ccc(N5CC[C@H](N(C)C)C5)c(NC(C)=O)c4)ncc3C(F)(F)F)cn(C)c12 [Compound S-389, (S)—N-(2-(3-(dimethylamino)pyrrolidin-1-yl)-5-((4-(7-methoxy-1-methyl-1H-indol-3-yl)-5-(trifluoromethyl)pyrimidin-2-yl)amino)phenyl)acetamide] | 23.5
– | 1560 | COc1cccc2c(-c3nc(Nc4ccc(N5CC[C@H](N(C)C)C5)c(NC(C)=O)c4)ncc3Cl)cn(C)c12 [Compound S-435, (S)—N-(5-(5-chloro-4-(7-methoxy-1-methyl-1H-indol-3-yl)pyrimidin-2-ylamino)-2-(3-(dimethylamino)pyrrolidin-1-yl)phenyl)acetamide] | 48.1

More lines, now with the values behind:

SMILES | IC50 (MV-4-11 (AML) cells) [nM] | IC50 (H1975 cells) [nM] | IC50 (KM12-luc cells) [nM]
CCC(=O)Nc1cccc(Nc2ncc(Cl)c(Nc3ccc(C4CCCN(C)C4)cc3OC)n2)c1 (stereo not shown) [Compound 166, N-(3-((5-chloro-4-((2-methoxy-4-(1-methylpiperidin-3-yl)phenyl)amino)pyrimidin-2-yl)amino)phenyl)propionamide] | 96.8 | 691 | 39.5
CCC(=O)Nc1cccc(Nc2ncc(C(F)(F)F)c(Nc3ccc(N4CCN(C(C)=O)CC4)cc3OC)n2)c1 [Compound 169, N-(3-((4-((4-(4-acetylpiperazin-1-yl)-2-methoxyphenyl)amino)-5-(trifluoromethyl)pyrimidin-2-yl)amino)phenyl)propionamide] | 25.9 | 285 | 43.8
COc1cnc(Nc2ccc(OCCN(C)C)c(NC(C)=O)c2)nc1-c1c[nH]c2c(C)cccc12 [Compound 284, N-(2-(2-(dimethylamino)ethoxy)-5-((5-methoxy-4-(7-methyl-1H-indol-3-yl)pyrimidin-2-yl)amino)phenyl)acetamide] | 63.8 | 1030 | 15
CCN(CCN(C)C)c1ccc(Nc2ncc(C(F)(F)F)c(-c3c[nH]c4cccc(F)c34)n2)cc1N [Compound 319, N^1-(2-(dimethylamino)ethyl)-N^1-ethyl-N^4-(4-(4-fluoro-1H-indol-3-yl)-5-(trifluoromethyl)pyrimidin-2-yl)benzene-1,2,4-triamine] | 29.7 | 772 | 19.1
CC(=O)Nc1cc(Nc2ncc(C(F)(F)F)c(-c3c[nH]c4c(F)cccc34)n2)ccc1N(C)CCN(C)C [Compound 334, N-(2-((2-(dimethylamino)ethyl)(methyl)amino)-5-((4-(7-fluoro-1H-indol-3-yl)-5-(trifluoromethyl)pyrimidin-2-yl)amino)phenyl)acetamide] | 3.4 | 92.1 | 3
CN(C)CCN(C)c1ccc(Nc2ncc(C(F)(F)F)c(-c3c[nH]c4c(F)cccc34)n2)cc1N [Compound 335, N^1-(2-(dimethylamino)ethyl)-N^1-methyl-N^4-(4-(7-fluoro-1H-indol-3-yl)-5-(trifluoromethyl)pyrimidin-2-yl)benzene-1,2,4-triamine] | 3.1 | 75.4 | 6.1
CCN(CCN(C)C)c1ccc(Nc2ncc(C(F)(F)F)c(-c3c[nH]c4c(F)cccc34)n2)cc1N [Compound 337, N^1-(2-(dimethylamino)ethyl)-N^1-ethyl-N^4-(4-(7-fluoro-1H-indol-3-yl)-5-(trifluoromethyl)pyrimidin-2-yl)benzene-1,2,4-triamine] | 11.1 | 366 | 10.4
CC(=O)Nc1cc(Nc2ncc(C(F)(F)F)c(-c3c[nH]c4c(F)cccc34)n2)ccc1OCCN(C)C [Compound 343, N-(2-(2-(dimethylamino)ethoxy)-5-((4-(7-fluoro-1H-indol-3-yl)-5-(trifluoromethyl)pyrimidin-2-yl)amino)phenyl)acetamide] | 2.6 | 77.3 | 4.3
CC(=O)Nc1cc(Nc2ncc(C(F)(F)F)c(-c3c[nH]c4c(C)cccc34)n2)ccc1N(C)CCN(C)C [Compound 358, N-(2-((2-(dimethylamino)ethyl)(methyl)amino)-5-((4-(7-methyl-1H-indol-3-yl)-5-(trifluoromethyl)pyrimidin-2-yl)amino)phenyl)acetamide] | 4.4 | 47 | 3.1
CC(=O)Nc1cc(Nc2ncc(Cl)c(-c3c[nH]c4c(F)cccc34)n2)ccc1N(C)CCN(C)C [Compound 412, N-(5-((5-chloro-4-(7-fluoro-1H-indol-3-yl)pyrimidin-2-yl)amino)-2-((2-(dimethylamino)ethyl)(methyl)amino)phenyl)acetamide] | – | 380 | 8.4
CC(=O)Nc1cc(Nc2ncc(Cl)c(-c3c[nH]c4c(C)cccc34)n2)ccc1N(C)CCN(C)C [Compound 423, N-(5-((5-chloro-4-(7-methyl-1H-indol-3-yl)pyrimidin-2-yl)amino)-2-((2-(dimethylamino)ethyl)(methyl)amino)phenyl)acetamide] | – | 66.5 | 4.7
COc1cccc2c(-c3nc(Nc4ccc(N(C)CCN(C)C)c(NC(C)=O)c4)ncc3Cl)c[nH]c12 [Compound 433, N-(5-(5-chloro-4-(7-methoxy-1H-indol-3-yl)pyrimidin-2-ylamino)-2-((2-(dimethylamino)ethyl)(methyl)amino)phenyl)acetamide] | – | 506 | 13.9
CCN(CCN(C)C)c1ccc(Nc2ncc(Cl)c(-c3c[nH]c4ccccc34)n2)cc1NC(C)=O [Compound 442, N-(5-((5-chloro-4-(1H-indol-3-yl)pyrimidin-2-yl)amino)-2-((2-(dimethylamino)ethyl)(ethyl)amino)phenyl)acetamide] | – | 328 | 6.4
CC(=O)Nc1cc(Nc2ncc(Cl)c(-c3cnc(C(C)C)n3C)n2)ccc1N(C)CCN(C)C [Compound 452, N-(5-((5-chloro-4-(2-isopropyl-1-methyl-1H-imidazol-5-yl)pyrimidin-2-yl)amino)-2-((2-(dimethylamino)ethyl)(methyl)amino)phenyl)acetamide] | > 1000 | > 20000 | –
CC(=O)Nc1cc(Nc2ncc(C(F)(F)F)c(-c3cn(C)c4c(C)cccc34)n2)ccc1N1CC[C@@H](N(C)C)C1 [Compound R-373, (R)—N-(5-((4-(1,7-dimethyl-1H-indol-3-yl)-5-(trifluoromethyl)pyrimidin-2-yl)amino)-2-(3-(dimethylamino)pyrrolidin-1-yl)phenyl)acetamide] | – | 923 | 22.8
COc1cccc2c(-c3nc(Nc4ccc(N5CC[C@@H](N(C)C)C5)c(NC(C)=O)c4)ncc3C(F)(F)F)cn(C)c12 [Compound R-389, (R)—N-(2-(3-(dimethylamino)pyrrolidin-1-yl)-5-((4-(7-methoxy-1-methyl-1H-indol-3-yl)-5-(trifluoromethyl)pyrimidin-2-yl)amino)phenyl)acetamide] | – | 940 | 24.8
COc1cccc2c(-c3nc(Nc4ccc(N5CC[C@@H](N(C)C)C5)c(NC(C)=O)c4)ncc3Cl)cn(C)c12 [Compound R-435, (R)—N-(5-(5-chloro-4-(7-methoxy-1-methyl-1H-indol-3-yl)pyrimidin-2-ylamino)-2-(3-(dimethylamino)pyrrolidin-1-yl)phenyl)acetamide] | – | 1040 | 31.9
